Measurements published in publication PMC4076210, “Discovery of Novel AKT Inhibitors with Enhanced Anti-Tumor Effects in Combination with the MEK Inhibitor” (PLoS ONE, 2014).
Where two headings read alike, the source gives them in different places.

Experiments:
[1] = target: T1, CHK2(h) (Homo sapiens, UniProt O96017); assay: Kinase panel; type: biochemical
T1 construct: purchased Millipore KinaseProfiler

[2] = target: T2, cKit(D816V)(h) (Homo sapiens, UniProt P10721, D816V); assay: Kinase panel; type: biochemical
T2 construct: purchased Millipore KinaseProfiler

[3] = target: T3, IR(h) (Homo sapiens, UniProt P06213); assay: Kinase panel; type: biochemical
T3 construct: purchased Millipore KinaseProfiler
T3 sequence (P06213 28-1382): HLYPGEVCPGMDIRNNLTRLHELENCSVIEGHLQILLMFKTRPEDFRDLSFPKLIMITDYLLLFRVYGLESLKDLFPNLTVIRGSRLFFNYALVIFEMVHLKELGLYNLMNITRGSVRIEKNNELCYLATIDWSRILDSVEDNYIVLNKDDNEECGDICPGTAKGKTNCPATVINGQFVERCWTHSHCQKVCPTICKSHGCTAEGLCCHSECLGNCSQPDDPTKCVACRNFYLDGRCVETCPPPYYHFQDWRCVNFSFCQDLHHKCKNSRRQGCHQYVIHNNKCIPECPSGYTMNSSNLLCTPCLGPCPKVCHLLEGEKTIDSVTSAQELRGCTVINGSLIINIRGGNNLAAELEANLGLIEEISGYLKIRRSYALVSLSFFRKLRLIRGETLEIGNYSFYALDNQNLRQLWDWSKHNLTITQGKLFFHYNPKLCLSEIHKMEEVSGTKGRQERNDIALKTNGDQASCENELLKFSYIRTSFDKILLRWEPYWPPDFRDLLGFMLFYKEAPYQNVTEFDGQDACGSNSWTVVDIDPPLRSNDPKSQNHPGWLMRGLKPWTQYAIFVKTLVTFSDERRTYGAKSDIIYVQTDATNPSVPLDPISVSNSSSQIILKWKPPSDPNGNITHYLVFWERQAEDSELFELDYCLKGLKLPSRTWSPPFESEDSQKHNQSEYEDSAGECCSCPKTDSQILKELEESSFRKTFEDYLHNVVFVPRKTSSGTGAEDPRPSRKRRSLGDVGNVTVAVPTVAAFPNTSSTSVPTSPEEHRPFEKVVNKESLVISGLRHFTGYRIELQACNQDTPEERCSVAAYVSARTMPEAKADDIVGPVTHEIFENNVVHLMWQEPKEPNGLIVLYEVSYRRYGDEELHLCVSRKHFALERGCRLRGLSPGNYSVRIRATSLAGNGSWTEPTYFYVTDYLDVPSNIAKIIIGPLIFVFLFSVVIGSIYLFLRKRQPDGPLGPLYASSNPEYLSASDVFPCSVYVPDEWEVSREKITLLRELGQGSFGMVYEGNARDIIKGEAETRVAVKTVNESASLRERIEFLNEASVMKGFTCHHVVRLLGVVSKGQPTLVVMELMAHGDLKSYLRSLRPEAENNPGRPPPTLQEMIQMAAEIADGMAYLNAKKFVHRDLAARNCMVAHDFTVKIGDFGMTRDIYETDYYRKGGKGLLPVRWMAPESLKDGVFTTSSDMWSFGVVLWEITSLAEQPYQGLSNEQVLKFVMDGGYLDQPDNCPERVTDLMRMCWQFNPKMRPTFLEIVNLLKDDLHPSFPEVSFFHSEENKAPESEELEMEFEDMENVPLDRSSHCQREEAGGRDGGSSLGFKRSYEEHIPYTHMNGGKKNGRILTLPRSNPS

[4] = target: T4, DDR2(h) (Homo sapiens, UniProt Q16832); assay: Kinase panel; type: biochemical
T4 construct: purchased Millipore KinaseProfiler
T4 sequence (Q16832 22-855): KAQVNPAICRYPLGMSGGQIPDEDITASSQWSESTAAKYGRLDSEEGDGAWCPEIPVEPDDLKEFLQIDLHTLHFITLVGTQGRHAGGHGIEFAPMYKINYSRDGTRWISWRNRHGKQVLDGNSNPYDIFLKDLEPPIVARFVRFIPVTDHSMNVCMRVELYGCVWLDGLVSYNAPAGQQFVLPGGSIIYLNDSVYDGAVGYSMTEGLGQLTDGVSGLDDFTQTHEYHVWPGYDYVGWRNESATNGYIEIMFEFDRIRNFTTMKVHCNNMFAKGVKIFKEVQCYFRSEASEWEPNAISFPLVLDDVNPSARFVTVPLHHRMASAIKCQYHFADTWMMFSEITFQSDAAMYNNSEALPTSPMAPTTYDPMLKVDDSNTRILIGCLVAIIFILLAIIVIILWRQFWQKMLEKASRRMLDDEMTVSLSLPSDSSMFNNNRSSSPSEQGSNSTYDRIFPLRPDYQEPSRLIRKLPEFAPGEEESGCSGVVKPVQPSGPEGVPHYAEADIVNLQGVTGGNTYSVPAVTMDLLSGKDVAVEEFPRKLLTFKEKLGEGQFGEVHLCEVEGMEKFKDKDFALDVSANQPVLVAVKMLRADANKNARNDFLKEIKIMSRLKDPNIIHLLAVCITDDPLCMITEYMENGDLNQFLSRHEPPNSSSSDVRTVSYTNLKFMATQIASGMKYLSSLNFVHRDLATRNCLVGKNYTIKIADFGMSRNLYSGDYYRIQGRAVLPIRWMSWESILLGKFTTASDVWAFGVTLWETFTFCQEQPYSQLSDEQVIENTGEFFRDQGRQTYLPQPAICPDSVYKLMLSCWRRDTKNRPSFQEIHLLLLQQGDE

[5] = target: T5, CaMKIIγ(h) (Homo sapiens, UniProt Q13555); assay: Kinase panel; type: biochemical
T5 construct: purchased Millipore KinaseProfiler
T5 sequence (Q13555 whole entry): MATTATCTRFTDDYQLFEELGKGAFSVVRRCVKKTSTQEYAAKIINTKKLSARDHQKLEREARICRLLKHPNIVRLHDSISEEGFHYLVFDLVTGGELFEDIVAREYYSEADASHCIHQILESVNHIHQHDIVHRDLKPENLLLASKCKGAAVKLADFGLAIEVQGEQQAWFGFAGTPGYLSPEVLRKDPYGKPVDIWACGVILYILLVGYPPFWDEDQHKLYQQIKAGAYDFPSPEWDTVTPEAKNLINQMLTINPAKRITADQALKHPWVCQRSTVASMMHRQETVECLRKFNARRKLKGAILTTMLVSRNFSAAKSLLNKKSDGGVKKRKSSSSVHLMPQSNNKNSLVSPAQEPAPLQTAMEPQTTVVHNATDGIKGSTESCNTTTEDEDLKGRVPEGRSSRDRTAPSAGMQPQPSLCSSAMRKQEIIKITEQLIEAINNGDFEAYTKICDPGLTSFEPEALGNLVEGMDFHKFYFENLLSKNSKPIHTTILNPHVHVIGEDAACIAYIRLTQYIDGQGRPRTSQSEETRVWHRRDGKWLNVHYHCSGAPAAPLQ

[6] = tested on: pPRAS40 in LNCaP; assay: phospho-PRAS40 ELISA; type: cell-based; conditions: Homo sapiens, mean ± std dev
Protocol: (§1) ELISA plates were prepared by coating with anti-GSK3β antibody (R&D Systems), and blocked with 5% Milk/0.1% Tween-20. Cells were seeded at 25,000 cells/96-well overnight and treated with DMSO or various concentrations of drug for 1 h. Cells were lysed in 20 mM Tris-HCl (pH 8.0), 137 mM NaCl, 2 mM EDTA, 10% glycerol and 1% Triton X-100 and lysates transferred to ELISA plates and incubated overnight. The plates were washed and incubated with rabbit anti-phospho-GSK3β (Ser9) antibody (R&D Systems) for 1 h. After washing, plates were developed using HRP-linked anti-rabbit IgG, and 3,3′,5,5′-tetramethylbenzidine as substrate. Absorption was measured in a microplate spectrophotometer at 450 nm. The phospho-PRAS40 ELISA followed similar methodology as above with the exception of using a commercially available PRAS40 (pThr246) kit (Biosource) and following manufacturers' instructions for the ELISA analysis.

[7] = tested on: pPRAS40 in BT474; assay: phospho-PRAS40 ELISA; type: cell-based; conditions: Homo sapiens, BT-474; BT474, mean ± std dev
Protocol: as §1

[8] = target: T6, PKCθ(h) (Homo sapiens, UniProt Q04759); assay: Kinase panel; type: biochemical
T6 construct: purchased Millipore KinaseProfiler

[9] = target: T7, BRK(h) (Homo sapiens, UniProt Q13882); assay: Kinase panel; type: biochemical
T7 construct: purchased Millipore KinaseProfiler
T7 sequence (Q13882 whole entry): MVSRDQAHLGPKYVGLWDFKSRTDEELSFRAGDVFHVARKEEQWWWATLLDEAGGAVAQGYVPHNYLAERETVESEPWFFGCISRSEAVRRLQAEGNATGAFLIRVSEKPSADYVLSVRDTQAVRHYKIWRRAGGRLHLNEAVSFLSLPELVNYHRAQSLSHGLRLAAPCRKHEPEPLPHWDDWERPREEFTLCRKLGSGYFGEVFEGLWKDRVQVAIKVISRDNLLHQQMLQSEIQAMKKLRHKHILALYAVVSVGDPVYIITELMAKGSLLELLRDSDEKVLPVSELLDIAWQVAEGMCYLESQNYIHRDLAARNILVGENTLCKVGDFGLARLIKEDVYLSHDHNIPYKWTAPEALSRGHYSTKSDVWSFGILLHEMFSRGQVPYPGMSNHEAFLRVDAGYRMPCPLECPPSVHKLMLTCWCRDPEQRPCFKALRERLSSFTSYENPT

[10] = target: T8, MSSK1(h) (Homo sapiens, UniProt Q9UPE1); assay: Kinase panel; type: biochemical
T8 construct: purchased Millipore KinaseProfiler

[11] = target: T9, PKCι(h) (Homo sapiens, UniProt P41743); assay: Kinase panel; type: biochemical
T9 construct: purchased Millipore KinaseProfiler
T9 sequence (P41743 1-596): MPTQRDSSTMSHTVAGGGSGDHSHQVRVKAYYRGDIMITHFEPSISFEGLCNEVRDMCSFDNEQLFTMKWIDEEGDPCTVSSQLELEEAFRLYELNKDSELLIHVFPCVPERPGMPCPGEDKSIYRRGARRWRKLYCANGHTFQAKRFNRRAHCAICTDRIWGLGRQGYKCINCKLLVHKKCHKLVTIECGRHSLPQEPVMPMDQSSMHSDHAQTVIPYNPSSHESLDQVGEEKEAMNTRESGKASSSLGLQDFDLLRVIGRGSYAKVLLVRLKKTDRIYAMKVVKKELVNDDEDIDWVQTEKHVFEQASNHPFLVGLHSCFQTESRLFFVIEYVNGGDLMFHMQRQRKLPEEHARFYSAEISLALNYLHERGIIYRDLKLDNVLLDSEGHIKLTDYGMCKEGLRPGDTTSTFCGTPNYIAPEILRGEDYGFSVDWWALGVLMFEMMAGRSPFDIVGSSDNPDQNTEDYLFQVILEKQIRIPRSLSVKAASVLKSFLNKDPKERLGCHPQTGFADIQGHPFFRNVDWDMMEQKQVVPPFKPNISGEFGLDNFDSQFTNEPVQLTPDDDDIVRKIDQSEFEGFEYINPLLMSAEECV

[12] = target: T10, DAPK2(h) (Homo sapiens, UniProt Q9UIK4); assay: Kinase panel; type: biochemical
T10 construct: purchased Millipore KinaseProfiler

[13] = target: T11, Rsk1(r) (Rattus norvegicus, UniProt Q63531); assay: Kinase panel; type: biochemical
T11 construct: purchased Millipore KinaseProfiler
T11 sequence (Q63531 whole entry): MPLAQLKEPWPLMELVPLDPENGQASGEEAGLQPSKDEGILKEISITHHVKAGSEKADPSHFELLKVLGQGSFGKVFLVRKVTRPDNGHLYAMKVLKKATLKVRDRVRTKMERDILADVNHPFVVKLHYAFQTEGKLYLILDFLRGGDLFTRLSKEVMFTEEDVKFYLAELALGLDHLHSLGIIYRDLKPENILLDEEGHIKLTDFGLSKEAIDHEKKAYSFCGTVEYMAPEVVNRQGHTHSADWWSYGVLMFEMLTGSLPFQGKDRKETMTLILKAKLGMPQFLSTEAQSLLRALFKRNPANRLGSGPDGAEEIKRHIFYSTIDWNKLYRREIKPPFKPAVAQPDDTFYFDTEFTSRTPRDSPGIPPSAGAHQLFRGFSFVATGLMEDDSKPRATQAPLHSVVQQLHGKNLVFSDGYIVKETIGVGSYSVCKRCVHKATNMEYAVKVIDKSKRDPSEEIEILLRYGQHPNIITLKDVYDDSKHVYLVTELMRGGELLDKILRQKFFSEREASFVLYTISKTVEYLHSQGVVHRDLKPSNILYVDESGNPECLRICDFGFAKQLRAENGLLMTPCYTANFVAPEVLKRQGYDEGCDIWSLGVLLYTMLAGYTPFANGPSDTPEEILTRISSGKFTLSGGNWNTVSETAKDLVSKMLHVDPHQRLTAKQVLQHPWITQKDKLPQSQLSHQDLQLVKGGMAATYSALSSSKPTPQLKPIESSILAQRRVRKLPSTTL

[14] = target: T12, Fer(h) (Homo sapiens, UniProt P16591); assay: Kinase panel; type: biochemical
T12 construct: purchased Millipore KinaseProfiler
T12 sequence (P16591 whole entry): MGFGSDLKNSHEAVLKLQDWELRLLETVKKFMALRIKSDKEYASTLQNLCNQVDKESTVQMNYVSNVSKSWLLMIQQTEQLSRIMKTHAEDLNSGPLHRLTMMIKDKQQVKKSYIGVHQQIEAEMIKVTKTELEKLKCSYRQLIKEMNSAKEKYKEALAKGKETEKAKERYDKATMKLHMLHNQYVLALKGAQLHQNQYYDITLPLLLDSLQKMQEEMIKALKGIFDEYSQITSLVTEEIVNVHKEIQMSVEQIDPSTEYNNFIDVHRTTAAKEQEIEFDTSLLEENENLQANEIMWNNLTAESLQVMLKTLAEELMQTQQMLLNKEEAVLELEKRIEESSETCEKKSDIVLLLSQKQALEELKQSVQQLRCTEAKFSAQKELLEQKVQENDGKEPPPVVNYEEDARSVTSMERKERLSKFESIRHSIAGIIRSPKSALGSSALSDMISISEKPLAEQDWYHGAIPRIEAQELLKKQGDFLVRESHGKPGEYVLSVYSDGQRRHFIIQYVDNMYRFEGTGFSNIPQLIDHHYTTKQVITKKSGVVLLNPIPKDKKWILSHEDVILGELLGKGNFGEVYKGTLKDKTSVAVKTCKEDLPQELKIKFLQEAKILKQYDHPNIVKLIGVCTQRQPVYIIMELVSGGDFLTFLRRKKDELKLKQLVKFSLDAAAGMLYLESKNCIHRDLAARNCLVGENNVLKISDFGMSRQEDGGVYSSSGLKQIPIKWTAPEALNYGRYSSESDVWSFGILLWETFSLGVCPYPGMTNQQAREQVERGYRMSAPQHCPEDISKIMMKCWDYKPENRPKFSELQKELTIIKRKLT

[15] = target: T13, JNK3(h) (Homo sapiens, UniProt P53779); assay: Kinase panel; type: biochemical
T13 construct: purchased Millipore KinaseProfiler
T13 sequence (P53779 whole entry): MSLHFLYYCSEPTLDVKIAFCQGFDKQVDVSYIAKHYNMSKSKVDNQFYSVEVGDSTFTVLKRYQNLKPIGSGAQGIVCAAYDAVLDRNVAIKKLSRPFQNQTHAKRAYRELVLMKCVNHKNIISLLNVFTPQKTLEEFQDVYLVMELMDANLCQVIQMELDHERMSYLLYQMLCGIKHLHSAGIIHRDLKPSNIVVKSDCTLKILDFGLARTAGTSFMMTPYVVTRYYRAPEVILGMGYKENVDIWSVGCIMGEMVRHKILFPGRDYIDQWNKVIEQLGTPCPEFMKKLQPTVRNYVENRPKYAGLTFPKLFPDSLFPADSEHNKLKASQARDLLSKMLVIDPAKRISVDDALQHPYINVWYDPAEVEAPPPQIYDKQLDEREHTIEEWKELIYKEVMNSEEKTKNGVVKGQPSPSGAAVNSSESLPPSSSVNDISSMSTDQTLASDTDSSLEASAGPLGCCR

T1 sequence (O96017 whole entry): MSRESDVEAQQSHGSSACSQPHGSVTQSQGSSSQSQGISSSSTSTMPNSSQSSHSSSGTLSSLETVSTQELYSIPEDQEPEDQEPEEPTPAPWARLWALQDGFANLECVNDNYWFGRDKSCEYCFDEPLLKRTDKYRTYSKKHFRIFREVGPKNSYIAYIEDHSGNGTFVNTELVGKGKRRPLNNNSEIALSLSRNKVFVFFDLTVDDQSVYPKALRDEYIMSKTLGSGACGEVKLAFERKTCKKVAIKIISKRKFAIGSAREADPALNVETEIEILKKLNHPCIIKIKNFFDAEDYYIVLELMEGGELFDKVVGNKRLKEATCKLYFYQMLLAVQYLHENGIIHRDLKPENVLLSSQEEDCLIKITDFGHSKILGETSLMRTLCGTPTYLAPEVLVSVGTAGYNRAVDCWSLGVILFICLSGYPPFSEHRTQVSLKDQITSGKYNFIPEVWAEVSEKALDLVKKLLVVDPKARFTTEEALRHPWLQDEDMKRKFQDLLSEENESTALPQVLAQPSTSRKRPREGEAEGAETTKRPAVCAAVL

Compound Cn1ncc(Cl)c1-c1cc(C(=O)N[C@H](CN)Cc2ccc(F)c(F)c2)oc1Cl [GSK2141795] has an inhibition at 0.5 µM ([1]; 0.5 µM, read-out: % Inhibition) of 36%, an inhibition at 10 µM ([1]; 10 µM, read-out: % Inhibition) of 91% and an inhibition at 0.5 µM ([2]; 0.5 µM, read-out: % Inhibition) of -17%. It also gave an inhibition at 10 µM ([2]; 10 µM, read-out: % Inhibition) of -16%, an inhibition at 0.5 µM ([3]; 0.5 µM, read-out: % Inhibition) of -8% and an inhibition at 10 µM ([3]; 10 µM, read-out: % Inhibition) of 41%. The inhibition at 0.5 µM ([4]; 0.5 µM, read-out: % Inhibition) was 3%, the inhibition at 10 µM ([4]; 10 µM, read-out: % Inhibition) was 12% and the inhibition at 0.5 µM ([5]; 0.5 µM, read-out: % Inhibition) was 48%. It also gave an inhibition at 10 µM ([5]; 10 µM, read-out: % Inhibition) of 92%, an IC50 [6] of 55 ± 2 nM and an IC50 [7] of 39 ± 0.5 nM. For the same compound, the inhibition at 0.5 µM ([8]; 0.5 µM, read-out: % Inhibition) was 82%, the inhibition at 10 µM ([8]; 10 µM, read-out: % Inhibition) was 94% and the inhibition at 0.5 µM ([9]; 0.5 µM, read-out: % Inhibition) was -15%. For the same compound, the inhibition at 10 µM ([9]; 10 µM, read-out: % Inhibition) was 25%, the inhibition at 0.5 µM ([10]; 0.5 µM, read-out: % Inhibition) was -6% and the inhibition at 10 µM ([10]; 10 µM, read-out: % Inhibition) was 10%. The inhibition at 0.5 µM ([11]; 0.5 µM, read-out: % Inhibition) was 0%, the inhibition at 10 µM ([11]; 10 µM, read-out: % Inhibition) was 43% and the inhibition at 0.5 µM ([12]; 0.5 µM, read-out: % Inhibition) was -10%. For the same compound, the inhibition at 10 µM ([12]; 10 µM, read-out: % Inhibition) was 58%, the inhibition at 0.5 µM ([13]; 0.5 µM, read-out: % Inhibition) was 57% and the inhibition at 10 µM ([13]; 10 µM, read-out: % Inhibition) was 95%. For the same compound, the inhibition at 0.5 µM ([14]; 0.5 µM, read-out: % Inhibition) was 1%, the inhibition at 10 µM ([14]; 10 µM, read-out: % Inhibition) was -4% and the inhibition at 0.5 µM ([15]; 0.5 µM, read-out: % Inhibition) was -5%. It also gave an inhibition at 10 µM ([15]; 10 µM, read-out: % Inhibition) of 3%.
Cn1ncc(Cl)c1-c1cc(C(=O)N[C@H](CN)Cc2cccc(F)c2)sc1Cl [GSK2110183] gave an inhibition at 0.5 µM [1] of 39%, an inhibition at 10 µM [1] of 97% and an inhibition at 0.5 µM [2] of 0%. For the same compound, the inhibition at 10 µM [2] was 9%, the inhibition at 0.5 µM [3] was 35% and the inhibition at 10 µM [3] was 32%. For the same compound, the inhibition at 0.5 µM [4] was 1%, the inhibition at 10 µM [4] was 6% and the inhibition at 0.5 µM [5] was 39%. For the same compound, the inhibition at 10 µM [5] was 89%, the IC50 [6] was 104 ± 5 nM and the IC50 [7] was 121 ± 40 nM. It also gave an inhibition at 0.5 µM [8] of 62%, an inhibition at 10 µM [8] of 94% and an inhibition at 0.5 µM [9] of 0%. For the same compound, the inhibition at 10 µM [9] was -2%, the inhibition at 0.5 µM [10] was -1% and the inhibition at 10 µM [10] was 12%. It also gave an inhibition at 0.5 µM [11] of 1%, an inhibition at 10 µM [11] of 50% and an inhibition at 0.5 µM [12] of -1%. It also gave an inhibition at 10 µM [12] of 37%, an inhibition at 0.5 µM [13] of 24% and an inhibition at 10 µM [13] of 89%. The inhibition at 0.5 µM [14] was -8%, the inhibition at 10 µM [14] was 16% and the inhibition at 0.5 µM [15] was -5%. The inhibition at 10 µM [15] was 6%.
